According to PubChem BioAssay (NCI):
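Method: 48-hour compound exposure of cells in 96-well plates, five concentrations, linear interpolation of endpoints. Definition used: TGI = concentration required for complete inhibition of growth.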

How the values were obtained:
Assay in all cases: growth of human tumour cells (NCI), 48 h
OVCAR-3 ovarian = system: OVCAR-3 ovarian
NCI-H23 lung = system: NCI-H23 lung
HL-60(TB) leukemia = system: HL-60(TB) leukemia
NCI-H460 lung = system: NCI-H460 lung
UO-31 renal = system: UO-31 renal
BT-549 breast = system: BT-549 breast
A498 renal = system: A498 renal
NCI-H226 lung = system: NCI-H226 lung
HCT-15 colon = system: HCT-15 colon
SNB-75 CNS = system: SNB-75 CNS

SMILES | TGI (OVCAR-3 ovarian) [µM] | TGI (NCI-H23 lung) [µM] | TGI (HL-60(TB) leukemia) [µM] | TGI (NCI-H460 lung) [µM] | TGI (UO-31 renal) [µM] | TGI (BT-549 breast) [µM] | TGI (A498 renal) [µM] | TGI (NCI-H226 lung) [µM] | TGI (HCT-15 colon) [µM] | TGI (SNB-75 CNS) [µM]
OB1OCc2ccccc21 | > 100 | > 100 | > 100 | > 100 | > 100 | > 100 | > 100 | > 100 | > 100 | –
CC(C)(Oc1ccc(C2C[C@H]2Cl)cc1)C(=O)O (some centres not stated) | > 100 | – | > 100 | > 100 | – | > 100 | > 100 | – | > 100 | > 100
COC(=O)C(I(OS(=O)(=O)c1ccc(C)cc1)c1ccccc1)=P(c1ccccc1)(c1ccccc1)c1ccccc1 | 33.4 | 34.1 | 45.5 | > 100 | 54.8 | 45.5 | 44.7 | 23.2 | > 100 | –
CCC1(CC)C(=O)N(C(=O)c2ccc(Cl)cc2)N(C(=O)c2ccccc2Cl)C1=O | > 100 | > 100 | > 100 | 41.8 | > 100 | > 100 | – | 31.5 | > 100 | > 100
COC(=O)c1ccc2[nH]c3c(c2c1)CC(=O)Nc1ccccc1-3 | > 100 | – | – | > 100 | 0.211 | > 100 | > 100 | > 100 | > 100 | 6.11
Cc1ccc(-n2cc(-c3ccc(Cl)cc3)c3c(NNC(=S)NCc4ccccc4)ncnc32)cc1 | 37.4 | 60.4 | > 100 | 12.4 | 24.2 | 83 | 82.1 | > 100 | 68.2 | –
COc1cc(NS(C)(=O)=O)ccc1N1Cc2cnc3ccc4[nH]ccc1c4c23 | > 100 | > 100 | > 100 | 43.8 | > 100 | > 100 | > 100 | 93.5 | > 100 | –
N#Cc1ccc(/C=C2\Cc3ccccc3C2=O)cc1 | > 100 | > 100 | > 100 | > 100 | > 100 | > 100 | – | > 100 | > 100 | > 100
CSc1nc(Cl)c2c(n1)Sc1ncnn1C2O (configuration not stated) | 20.1 | 30.9 | 14.8 | 46.4 | 5.24 | 28.8 | 38.1 | – | 18.4 | –
Cc1ccc(-c2c(C#N)c(O)n(NS(=O)(=O)c3ccccc3)c(=O)c2C#N)cc1 | – | – | > 100 | > 100 | – | > 100 | > 100 | > 100 | > 100 | > 100
O=c1n(CCO)nc2n1CCCN2 | > 100 | > 100 | > 100 | > 100 | > 100 | > 100 | – | > 100 | > 100 | > 100
O=C1CSC(c2ccc(Cl)cc2)N1c1ccc(-n2c(-c3ccccc3)nc3ccccc3c2=O)cc1 (configuration not stated) | > 100 | > 100 | – | > 100 | > 100 | > 100 | > 100 | > 100 | > 100 | 69
